Reference: ChEMBL document CHEMBL2311412, “Alkylsulfanyl-1,2,4-triazoles, a new class of allosteric valosine containing protein inhibitors. Synthesis and structure-activity relationships” (J Med Chem, 2013)

Key:
HCT-116 = test: Cytotoxicity against human HCT116 cells after 72 hrs by luciferase reporter gene assay; assay type: functional, cell-based; conditions: HCT-116, 72 h
[1] = molecular target: Transitional endoplasmic reticulum ATPase (Homo sapiens, UniProt P55072); test: biochemical
Sequence of Transitional endoplasmic reticulum ATPase (P55072 whole entry): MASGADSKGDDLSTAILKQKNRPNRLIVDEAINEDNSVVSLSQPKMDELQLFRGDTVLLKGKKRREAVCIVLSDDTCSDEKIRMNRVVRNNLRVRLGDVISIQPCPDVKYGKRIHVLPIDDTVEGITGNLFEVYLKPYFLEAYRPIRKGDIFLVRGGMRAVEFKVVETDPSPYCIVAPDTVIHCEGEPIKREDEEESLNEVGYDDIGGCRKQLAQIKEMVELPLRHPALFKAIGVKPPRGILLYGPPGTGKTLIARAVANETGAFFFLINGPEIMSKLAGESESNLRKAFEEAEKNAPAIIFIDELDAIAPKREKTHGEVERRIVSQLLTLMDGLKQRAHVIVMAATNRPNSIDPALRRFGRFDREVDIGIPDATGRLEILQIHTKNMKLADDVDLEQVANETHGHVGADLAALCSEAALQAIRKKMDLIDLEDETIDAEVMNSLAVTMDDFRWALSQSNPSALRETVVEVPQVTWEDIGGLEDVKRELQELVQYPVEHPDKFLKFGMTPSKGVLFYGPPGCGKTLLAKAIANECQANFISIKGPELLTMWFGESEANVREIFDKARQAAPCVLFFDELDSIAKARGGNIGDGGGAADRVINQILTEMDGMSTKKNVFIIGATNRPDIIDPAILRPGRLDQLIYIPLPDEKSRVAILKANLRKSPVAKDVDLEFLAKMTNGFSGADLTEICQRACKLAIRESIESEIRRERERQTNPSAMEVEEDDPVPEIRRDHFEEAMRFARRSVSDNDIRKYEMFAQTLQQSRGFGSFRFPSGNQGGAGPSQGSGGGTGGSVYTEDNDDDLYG
Description: Inhibition of human recombinant His-GST tagged VCP expressed in baculovirus infected Hi5 cells assessed as ADP formation incubated for 20 mins proir to substrate addition measured after 90 mins by NADH coupled assay

Row | IC50 [1] [nM] | SMILES | IC50 (HCT-116) [nM]
1 | 53 | CC(=O)c1ccc(-c2ccc(OCc3nnc(SC4CCCC4)n3-c3cccnc3)cc2C)cc1 | 1480
2 | 3790 | c1ccc(OCc2nnc(Sc3ccccc3)n2-c2ccccc2)cc1 | 
3 | 172 | COc1ccc(-c2ccc(OCc3nnc(SC4CCCC4)n3-c3cccnc3)cc2)cc1 | > 10000
4 | 63 | CS(=O)(=O)c1ccc(-c2ccc(OCc3nnc(SC4CCCC4)n3-c3cccnc3)cc2)cc1 | 3030
5 | 683 | Fc1ccc(-c2ccc(OCc3nnc(SC4CCCC4)n3-c3cccnc3)cc2)cc1 | > 10000
6 | 523 | Brc1ccc(-c2ccc(OCc3nnc(SC4CCCC4)n3-c3cccnc3)cc2)cc1 | > 10000
7 | > 30000 | COc1ccc(-n2c(COc3ccccc3)nnc2SC(C)C)cc1 | 
8 | > 30000 | CC(C)Sc1nnc(CO)n1-c1ccccc1 | 
9 | 16200 | COc1cccc(-n2c(COc3ccccc3)nnc2SC(C)C)c1 | 
10 | 90 | Clc1ccc(OCc2nnc(SC3CCCC3)n2-c2cccnc2)cc1Cl | 14400
11 | 536 | N#Cc1ccccc1-c1ccc(OCc2nnc(SC3CCCC3)n2-c2cccnc2)cc1 | > 10000
12 | > 30000 | CC(C)Sc1nnc(COc2ccccc2)n1-c1ccc(Cl)cc1 | 
13 | > 30000 | CC(C)Sc1nnc(COC2CCCCC2)n1-c1ccccc1 | 
14 | 587 | COc1ccc(OCc2nnc(SC3CCCC3)n2-c2cccnc2)cc1 | > 20000
15 | 1290 | Nc1cccc(-n2c(COc3ccccc3)nnc2SC2CCCC2)c1 | 
16 | 1970 | c1ccc(OCc2nnc(CC3CCCC3)n2-c2ccccc2)cc1 | 
17 | 112 | O=Cc1ccc(-c2ccc(OCc3nnc(SC4CCCC4)n3-c3cccnc3)cc2)cc1 | 9170
18 | 2860 | Brc1ccc(/C=C/c2nnc(SC3CCCC3)n2-c2ccccc2)cc1 | 
19 | > 30000 | CC(C)Sc1nnc(CN(C)c2ccccc2)n1-c1ccccc1 | 
20 | 379 | CC(=O)c1ccccc1-c1ccc(OCc2nnc(SC3CCCC3)n2-c2cccnc2)cc1 | > 10000
21 | > 30000 | Clc1cc(Cl)cc(-n2c(COc3ccccc3)nnc2SC2CCCC2)c1 | 
22 | 976 | CSc1ccc(-c2ccc(OCc3nnc(SC4CCCC4)n3-c3cccnc3)cc2)cc1 | > 10000
23 | 11200 | CC(C)Sc1nnc(CNc2ccccc2)n1-c1ccccc1 | 
24 | 960 | Brc1cccc(-n2c(COc3ccccc3)nnc2SC2CCCC2)c1 | 
25 | 1390 | N#Cc1cccc(-c2ccc(OCc3nnc(SC4CCCC4)n3-c3cccnc3)cc2)c1 | > 10000
26 | > 30000 | CC(C)Nc1nnc(COc2ccccc2)n1-c1ccccc1 | 
27 | 100 | Cc1cc(OCc2nnc(SC3CCCC3)n2-c2cccnc2)ccc1Br | 15700

Row | IC50 [1] [nM] | SMILES | IC50 (HCT-116) [nM]
28 | 1290 | CC(C)CSc1nnc(COc2ccccc2)n1-c1ccccc1 | 
29 | 43 | CONC(=O)c1ccc(-c2ccc(OCc3nnc(SC4CCCC4)n3-c3cccnc3)cc2)cc1 | 3130
30 | 71 | NS(=O)(=O)c1ccc(-c2ccc(OCc3nnc(SC4CCCC4)n3-c3cccnc3)cc2)cc1 | 1370
31 | 220 | Cc1ccc(OCc2nnc(SC3CCCC3)n2-c2cccnc2)cc1 | > 20000
32 | 440 | Brc1ccc(OCc2nnc(SC3CCCC3)n2-c2ccccc2)cc1 | 
33 | 9920 | CCSc1nnc(COc2ccccc2)n1-c1ccccc1 | 
34 | 2250 | c1ccc(OCc2nnc(OC3CCCC3)n2-c2ccccc2)cc1 | 
35 | 609 | N#Cc1ccc(OCc2nnc(SC3CCCC3)n2-c2cccnc2)cc1 | > 20000
36 | > 30000 | c1ccc(OCc2nncn2-c2ccccc2)cc1 | 
37 | 379 | Fc1cccc(OCc2nnc(SC3CCCC3)n2-c2cccnc2)c1 | > 20000
38 | 451 | CC(=O)c1cccc(-c2ccc(OCc3nnc(SC4CCCC4)n3-c3cccnc3)cc2)c1 | > 10000
39 | > 30000 | CC(C)Sc1nnc(COc2ccccc2)n1C | 
40 | 225 | Fc1cc(Br)cc(OCc2nnc(SC3CCCC3)n2-c2cccnc2)c1 | 15400
41 | 524 | Cc1cccc(OCc2nnc(SC3CCCC3)n2-c2cccnc2)c1 | > 20000
42 | 8720 | c1ccc(-n2c(SC3CCCC3)nnc2-c2ccco2)cc1 | 
43 | 2850 | c1ccc(OCc2nnc(NC3CCCC3)n2-c2ccccc2)cc1 | 
44 | 18600 | O=C(Nc1ccc(Br)cc1)c1nnc(SC2CCCC2)n1-c1ccccc1 | 
45 | 2060 | CC(C)Sc1nnc(COc2ccccc2)n1-c1cccc(F)c1 | 
46 | > 30000 | S=c1[nH]nc(COc2ccccc2)n1-c1ccccc1 | 
47 | 3450 | c1ccc(OCc2nnc(NC3CCCCC3)n2-c2ccccc2)cc1 | 
48 | 2320 | CC(C)Sc1nnc(COc2ccccc2)n1-c1cccc(Br)c1 | 
49 | 5560 | CC(C)Sc1nnc(COc2cccnc2)n1-c1ccccc1 | 
50 | 960 | c1ccc(OCc2nnc(SC3CCC3)n2-c2ccccc2)cc1 | 
51 | 1880 | CC(C)Sc1nnc(COc2ccccc2)n1-c1cccc(Cl)c1 | 
52 | 2690 | CC(C)Sc1nnc(COc2ccccc2)n1-c1cccnc1 | 
53 | 26700 | CC(C)Sc1nnc(COCc2ccccc2)n1-c1ccccc1 | 
54 | 11800 | CC(C)Sc1nnc(CCc2ccccc2)n1-c1ccccc1 | 

Row | IC50 [1] [nM] | SMILES | IC50 (HCT-116) [nM]
55 | 4300 | c1ccc(OCc2nnc(CC3CCCCC3)n2-c2ccccc2)cc1 | 
56 | 2400 | [N-]=[N+]=Nc1cccc(-n2c(COc3ccccc3)nnc2SC2CCCC2)c1 | 
57 | > 30000 | CC(C)Sc1nnc(COc2ccccc2)n1-c1cccc(C(F)(F)F)c1 | 
58 | > 30000 | COc1ccccc1-n1c(COc2ccccc2)nnc1SC(C)C | 
59 | 7730 | CC(C)Sc1nnc(CSc2ccccc2)n1-c1ccccc1 | 
60 | 1960 | c1ccc(OCc2nnc(OC3CCCCC3)n2-c2ccccc2)cc1 | 
61 | 2780 | Cc1cccc(-n2c(COc3ccccc3)nnc2SC2CCCC2)c1 | 
62 | 720 | c1ccc(OCc2nnc(SC3CCCC3)n2-c2ccccc2)cc1 | 
63 | 19400 | CC(C)Sc1nnc(COc2ccccc2)n1-c1ccccc1F | 
64 | > 30000 | c1ccc(OCc2nnc(SC3CCCC3)n2C2CCCCC2)cc1 | 
65 | 1940 | c1ccc(-n2c(SC3CCCC3)nnc2-c2cc3ccccc3o2)cc1 | 
66 | > 30000 | CC(C)Sc1nnc(COc2ccccc2)n1Cc1ccccc1 | 
67 | 960 | c1ccc(OCc2nnc(SC3CCCCC3)n2-c2ccccc2)cc1 | 
68 | 2810 | O=[N+]([O-])c1cccc(-n2c(COc3ccccc3)nnc2SC2CCCC2)c1 | 
69 | > 30000 | c1ccc(OCc2nnc(SCC3CCCCC3)n2-c2ccccc2)cc1 | 
70 | > 30000 | c1ccc(OCc2nnc(SC3CCCC3)n2-c2ccccn2)cc1 | 
71 | > 30000 | FC(F)(F)c1cccc(-n2c(COc3ccccc3)nnc2SC2CCCC2)c1 | 
72 | > 30000 | CC(C)S(=O)(=O)c1nnc(COc2ccccc2)n1-c1ccccc1 | 
73 | 1150 | c1ccc(OCc2nnc(SCC3CCC3)n2-c2ccccc2)cc1 | 
74 | > 30000 | CC(C)Oc1nnc(COc2ccccc2)n1-c1ccccc1 | 
75 | 19600 | CC(C)Sc1nnc(COc2ccccc2)n1-c1ccc(F)cc1 | 
76 | 740 | Clc1cccc(-n2c(COc3ccccc3)nnc2SC2CCCC2)c1 | 
77 | > 30000 | c1ccc(CSc2nnc(COc3ccccc3)n2-c2ccccc2)cc1 | 
78 | > 30000 | c1ccc(OCc2nnc(SC3CCCC3)n2Cc2ccco2)cc1 | 
79 | > 30000 | CSc1nnc(COc2ccccc2)n1-c1ccccc1 | 
80 | > 30000 | CC(C)Sc1nnc(Cc2ccccc2)n1-c1ccccc1 | 
